The values below come from patent publication US6531314B1, “Growth hormone secretagogue receptor family” (Merck & Co., Inc., priority 1998, dated 2003).

SMILES strings stand for the structures.

The target in assay [1] is T1, human growth hormone secretagogue receptor (Type I) (Homo sapiens, UniProt Q92847).
T1 construct: expressed in transfected cells; host or cells: Xenopus laevis oocytes injected with cRNA, together with aequorin and G-alpha-11 cRNA
The assay is described as follows: aequorin bioluminescence assay in Xenopus oocytes. It is filed as cell-based. The settings on record: human Type I cRNA expressed in oocytes; responded to concentrations ranging from 1 mM to as low as 0.1 nM. On the procedure:
(§1) Xenopus laevis oocytes were isolated and injected using standard methods previously described by Arena, et al., 1991, Mol. Pharmacol. 40, 368-374, which is hereby incorporated by reference. Adult female Xenopus laevis frogs (purchased from Xenopus One, Ann Arbor, Mich.) were anesthetized with 0.17% tricaine methanesulfonate and the ovaries were surgically removed and placed in a 60 mm culture dish (Falcon) containing OR-2 medium without calcium (82.5 mM NaCl, 2 mM KCl, 2.5 mM sodium pyruvate, 1 mM MgCl2, […] penicillin, 1 mg/ml streptomycin, 5 mM HEPES, pH=7.5; ND-96 from Specialty Media, N.J.). Ovarian lobes were broken open, rinsed several times, and oocytes were released from their sacs by collagenase A digestion (Boehringer-Mannheim; 0.2% for 2-3 hours at 18° C.) in calcium-free OR-2. […]
(§2) The ABA requires injection of library pool cRNA (25 ng/egg for pool sizes of 500 to 10,000) with aequorin cRNA (2 ng/egg) supplemented with the G-protein alpha subunit Ga11 (2 ng/egg). […] Polymerase chain reaction (PCR) was utilized to generate a DNA fragment corresponding to the open reading frame (ORF) of the aequorin cDNA with an optimized Kosak translational initiation sequence (Inouye, S. et. ul., 1985, Proc. Natl. Acad. Sci. USA 82:3154-3158). […]

Assay [2] deals with T2, swine growth hormone secretagogue receptor (Type I, clone 7-3) (Sus scrofa, UniProt Q95254). The assay can be described thus: aequorin bioluminescence assay in Xenopus oocytes. It is filed as cell-based. More on the design: bioluminescence response: dose or concentration left out as unconfirmed. On the procedure: as §1, §2
T2 sequence (Q95254 65-366): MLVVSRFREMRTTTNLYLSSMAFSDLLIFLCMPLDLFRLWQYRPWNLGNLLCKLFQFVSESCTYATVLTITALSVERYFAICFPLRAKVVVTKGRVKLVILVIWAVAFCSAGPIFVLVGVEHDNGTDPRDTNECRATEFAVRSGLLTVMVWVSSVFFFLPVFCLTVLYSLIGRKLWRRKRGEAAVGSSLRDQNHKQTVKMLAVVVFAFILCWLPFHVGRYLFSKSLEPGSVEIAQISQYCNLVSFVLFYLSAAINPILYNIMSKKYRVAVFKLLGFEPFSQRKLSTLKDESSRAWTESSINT
Assay [3] deals with T3, rat GHSR type Ia (Rattus norvegicus, UniProt O08725).
T3 construct: Met-1 to Val-260 with EcoRI (5′) and HpaI (3′) restriction sites appended, while a carboxyl-terminal fragment was generated from Lys-261 to Thr-364; expressed in transfected cells; host or cells: 293-AEQ17 (HEK-293 aequorin reporter line), transient lipofectamine transfection of the pSV7 ORF construct
T3 sequence (O08725 whole entry, the tested form may be a part): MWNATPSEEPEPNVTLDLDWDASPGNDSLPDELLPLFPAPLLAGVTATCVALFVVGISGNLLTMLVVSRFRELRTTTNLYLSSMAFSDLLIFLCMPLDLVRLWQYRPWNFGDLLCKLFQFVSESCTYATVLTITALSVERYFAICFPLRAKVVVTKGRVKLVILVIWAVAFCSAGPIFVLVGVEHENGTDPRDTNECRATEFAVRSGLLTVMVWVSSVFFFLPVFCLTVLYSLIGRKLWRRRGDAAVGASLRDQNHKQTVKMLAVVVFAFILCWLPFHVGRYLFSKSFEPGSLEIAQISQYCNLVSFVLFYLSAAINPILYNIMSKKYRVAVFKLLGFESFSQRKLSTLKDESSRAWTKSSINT
The assay is described as follows: aequorin bioluminescence in transfected 293-AEQ17 reporter cells. In kind it is cell-based. The settings on record: rat GHSR ORF construct in 293-AEQ17 cells; three replicate samples (FIG. 26). On the procedure: Functional activity of the ORF construct was assessed by transfecting (using lipofectamine; GIBCO/BRL) […] of plasmid DNA into the aequorin expressing reporter cell line (293-AEQ17) cultured in 60 mm dishes. Following approximately 40 hours of expression the aequorin in the cells was charged for 2 hours with coelenterazine, the cells were harvested, washed and pelleted by low speed centrifugation into luminometer tubes. Functional activity was determined by measuring Compound A dependent mobilization of intracellular calcium and concomitant calcium induced aequorin bioluminescence.

In assay [4] the target is T2, swine growth hormone secretagogue receptor (Type I, clone 7-3). The assay can be described thus: 35S-Compound A binding assay, membranes of COS-7 cells transfected with clone 7-3.

T1 sequence (Q92847 whole entry): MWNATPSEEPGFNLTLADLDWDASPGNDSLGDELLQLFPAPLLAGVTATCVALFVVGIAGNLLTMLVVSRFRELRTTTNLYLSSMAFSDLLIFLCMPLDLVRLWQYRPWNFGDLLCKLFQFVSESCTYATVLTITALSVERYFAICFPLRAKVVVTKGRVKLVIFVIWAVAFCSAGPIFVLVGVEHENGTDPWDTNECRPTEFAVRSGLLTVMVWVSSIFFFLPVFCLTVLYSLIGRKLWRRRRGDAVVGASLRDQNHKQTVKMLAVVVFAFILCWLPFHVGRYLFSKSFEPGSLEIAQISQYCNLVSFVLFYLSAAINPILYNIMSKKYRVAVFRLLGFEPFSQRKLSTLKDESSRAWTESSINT

For the molecule `CC(C)(N)C(=O)N[C@H](COCc1ccccc1)C(=O)N1CCC2(CC1)CN(S(C)(=O)=O)c1ccccc12` [Compound A], the “lowest Compound A concentration giving a response” value came to 0.1 nM in assay [1] and 0.1 nM in assay [2] (swine Type I cRNA expressed in oocytes, responded to concentrations ranging from 1 mM to as low as 0.1 nM). Besides, in assay [2] (oocytes injected with cRNA of clones 7-3 and 28-18), the bioluminescence response entry is “positive bioluminescence response”. For the same molecule, the “luminescent response (mobilization of intracellular calcium)” value in assay [3] is reported as “luminescent responses”.
For `CC(C)(N)C(=O)N[C@H](COCc1ccccc1)C(=O)N1CCC2(CC1)CN([35S](C)(=O)=O)c1ccccc12` [^35S-Compound A], the Kd (as a rule, the free concentration of one partner at which half of the binding sites on the other are occupied at equilibrium, for simple one-to-one binding) in assay [4] is roughly 0.2 nM. Besides, in assay [4] (clone 7-3 expressed transiently in COS-7 cells, saturable binding), the Bmax is on record as roughly 80 fmol/mg protein.
